Here are results for two compounds from patent publication US8921272B2, “Herbicidal composition” (Ishihara Sangyo Kaisha, Ltd., priority 2011, dated 2014).

The structures appear in SMILES notation.

Holding throughout (assay type): in vivo
Assay [1] deals with bermuda grass (Cynodon dactylon (L.) Pers.). Nature of the assay: Test Example 2: foliar treatment pot test, visually observed growth inhibition of bermuda grass. The note with it: 504 h, foliar treatment at 4.0 to 4.5 leaf stage, 0.25 vol % Agral, 21 days after treatment, read-out: Growth inhibition rate (%) of bermuda grass, Measured value. The text has this: (§1) When the herbicidal activity in a case where two active ingredients are combined, is larger than the simple sum of the respective herbicidal activities of the two active ingredients (the expected activity), it is called a synergistic effect. The activity expected by the combination of two active ingredients can be calculated as follows (Colby S. R., “Weed”, vol. 15, p. 20-22, 1967). E=α+β−(α×β÷100) where α: growth inhibition rate when treated with x (g/ha) of herbicide X,
(§2) β: growth inhibition rate when treated with y (g/ha) of herbicide Y,
(§3) E: growth inhibition rate expected when treated with x (g/ha) of herbicide X and y (g/ha) of herbicide Y.
(§4) That is, when the actual growth inhibition rate (measured value) is larger than the growth inhibition rate by the above calculation (calculated value), the activity by the combination can be regarded as showing a synergistic effect.
(§5) Growth inhibition rate (%)=0 (equivalent to the non-treated area) to 100 (complete kill)
Upland field soil was put into a 1/1,000,000 ha pot, and seeds of bermuda grass (Cynodon dactylon (L.) Pers.) were sown. […]

Another assay has as its system corn (Zea mays L.). Nature of the assay: Test Example 4: soil treatment pot test, visually observed growth inhibition of corn (crop plant which became weeds). As to conditions: soil treatment one day after sowing, 28 days after treatment, read-out: Growth inhibition rate (%) of corn, Measured value. From the text:
When the herbicidal activity in a case where two active ingredients are combined, is larger than the simple sum of the respective herbicidal activities of the two active ingredients (the expected activity), it is called a synergistic effect. The activity expected by the combination of two active ingredients can be calculated as follows (Colby S. R., “Weed”, vol. 15, p. 20-22, 1967). […] β: growth inhibition rate when treated with y (g/ha) of herbicide Y, E: growth inhibition rate expected when treated with x (g/ha) of herbicide X and y (g/ha) of herbicide Y. That is, when the actual growth inhibition rate (measured value) is larger than the growth inhibition rate by the above calculation (calculated value), the activity by the combination can be regarded as showing a synergistic effect. […] One day later, water dispersible granules containing flazasulfuron as an active ingredient (tradename: SHIBAGEN DF) and water dispersible granules containing amicarbazone as an active ingredient ([…]) in predetermined amounts were diluted with water (corresponding to 200 Uha) and applied for soil treatment by a small sprayer.

Assay [2] concerns goosegrass (Eleusine indica (L.) Gaertn.). As to the kind of experiment: Test Example 1: soil treatment pot test, visually observed growth inhibition of goosegrass. As to conditions: soil treatment one day after sowing, 14 days after treatment, 0 = non-treated, 100 = complete kill, read-out: Growth inhibition rate (%) of goosegrass, Measured value. From the text: When the herbicidal activity in a case where two active ingredients are combined, is larger than the simple sum of the respective herbicidal activities of the two active ingredients (the expected activity), it is called a synergistic effect. The activity expected by the combination of two active ingredients can be calculated as follows (Colby S. R., “Weed”, vol. 15, p. 20-22, 1967). […] β: growth inhibition rate when treated with y (g/ha) of herbicide Y, E: growth inhibition rate expected when treated with x (g/ha) of herbicide X and y (g/ha) of herbicide Y. That is, when the actual growth inhibition rate (measured value) is larger than the growth inhibition rate by the above calculation (calculated value), the activity by the combination can be regarded as showing a synergistic effect. […] Further, in accordance with the Colby's formula, the growth inhibition rate (%) (calculated value) was calculated.

Assay [3] relates to green kyllinga (Cyperus brevifolius var. leiolepis). Nature of the assay: Test Example 3: foliar treatment pot test, visually observed growth inhibition of green kyllinga. As to conditions: 672 h, read-out: Growth inhibition rate (%) of green kyllinga, Measured value.
Excerpt: as §1, §2, §3, §4, §5
Upland field soil was put into a 1/1,000,000 ha pot, and tubers of green kyllinga (Cyperus brevifolius var. leiolepis) were planted. […]

A word on the inhibition: it is the share of the control response that was lost under treatment. As to `COc1cc(OC)nc(NC(=O)NS(=O)(=O)c2ncccc2C(F)(F)F)n1` [Flazasulfuron, 1-(4,6-dimethoxypyrimidin-2-yl)-3-(3-trifluoromethyl-2-pyridylsulfonyl)urea], in assay [1] (dose 200 g/ha), the inhibition at 200 g/ha was found to be 15%. Besides, the inhibition at 5 g/ha came out at 40% in the assay on corn (Zea mays L.) (dose 5 g/ha) and 0% in assay [3] (dose 5 g/ha, foliar treatment at 6.0 to 7.0 cm, 0.025 vol % Agral, 28 days after treatment). Also, the inhibition at 37.5 g/ha in assay [2] (dose 37.5 g/ha) was determined as 53%.

For `CC(C)c1nn(C(=O)NC(C)(C)C)c(=O)n1N` [Amicarbazone, 4-amino-N-tertiary butyl-4,5-dihydro-3-isopropyl-5-oxo-1,2,4-1H-triazole-1-carboxamide], in assay [1] (dose 150 g/ha), the inhibition at 150 g/ha came to 0%. The inhibition at 2500 g/ha in the assay with corn (Zea mays L.) (dose 2500 g/ha) was determined as 87%. Moreover, the inhibition at 1050 g/ha in assay [2] (dose 1050 g/ha) is 68%. Further, the inhibition at 1250 g/ha in assay [3] (foliar) is 69%.
